Data set [1] in a line: Solubility in different organic solvents (aliquot addition until dissolution). It is filed as physicochemical. On the procedure:
Solubility in different organic solvents was measured using the following protocol. Approximately 25 mg portions of genistein and crystalline genistein sodium dihydrate salt were placed in 48 different vials, separately. 5 volume aliquots of each solvent were added exclusively to a vial. Between each addition, the mixture was checked for dissolution and if no dissolution was apparent, the procedure was continued until dissolution was observed or when 50 volumes had been added.

A short description of data set [2]: SuperSol 1000 kinetic and equilibrium solubility assay.
Experimental: Since both compounds form suspensions in pure deionized H2O, physicochemical properties were assessed from solutions of 100% EtOH as well as mixtures of dH2O and EtOH, specifically, EtOH 50/50 (vol/vol) and EtOH/dH2O 75/25 (vol/vol) according to European Pharmacopeia guidelines 01/2008, Section 2.9.3., Table 2.9.3.5. • The following parameters were measured: • t[MSS] defined as: Time from start of analysis to Maximum Solubilization Speed (min) • C[MSS] defined as: Early kinetic solubility as expressed as concentration at Maximum Solubilization Speed (mg×I^−1) • C[Eq] defined as: Late kinetic solubility as expressed as concentration at Equilibrium Kinetic Solubility (mg×I^−1) • t[Eq] defined as: Time from start of analysis to Equilibrium Kinetic solubility (min) • ΔC [CEq−CMSS] defined as: Difference in concentration between Early and Late Kinetic Solubility as defined above (mg×I^−1) • Δt [CEq−CMSS] defined as: Difference in time between Early and Late Kinetic Solubility endpoints (min) • MSS defined as: Maximum Solubility Speed defined by C[MSS]/t[Mss] (mg×I^−1×min^−1) • ISI defined as: Intrinsic Solubility Index defined by ΔC [CEq−CMSS]/Δt [CEq−CMSS] • The higher the ISI value, the faster the solubilization and the stronger the relative contribution of the late, intrinsic kinetic equilibrium solubility C[Eq]. • KSR defined as: Kinetic Solubility ratio given by C[MSS]/C[Eq]. • The KSR is the numerical ratio indicator of the relative contribution of the early kinetic Solubility to the Overall Late Kinetic Equilibrium Solubility. The higher the KSR Value, the stronger the relative contribution of the early kinetic solubility C[MSS].
Data set [3] can be described thus: Aqueous solubility (slurry ca. 24 hours, filtered, HPLC-UV). The format is physicochemical. The settings on record: aqueous buffer, thermodynamic from solid. On the procedure: Aqueous solubility was measured using the following protocol. Slurries of genistein and of crystalline genistein sodium dihydrate salt were made up in aqueous media in which pH was set at 4.5, 6.7, and 7.5, each slurry was shaken at ambient temperature for ca. 24 hours and then filtered using a 0.2 μm filter into a clean vial. The saturated solutions were then diluted and analyzed for API (genistein) content using N—Ac-DL-Methionine on a Chirobiotic T HPLC column and UV detector set at λmax=270 nm. The mobile phase was acetonitrile/water run in isocratic mode over a 30 minute period. The results are presented in Table 3, (BDL=below detection limits).
The aqueous solubility of crystalline genistein potassium salt dihydrate was measured using the protocol described in Example 1.7. Table 16 compares the aqueous solubilities of crystalline genistein potassium salt dihydrate with that of genistein.

Data set [4] in a line: Gravimetric vapor sorption (GVS). The format is physicochemical. The settings on record: for maximum of water adsorbed (GVS): 0-90% RH sorption cycle; for moisture change (GVS): between 20 and 70 RH % (typical working range of material). On the procedure: Approximately 15 mg of sample was placed into a wire-mesh vapor sorption balance pan and loaded into an SMS intrinsic vapor sorption balance supplied (Surface Measurement Systems Instruments). The sample was then dried by maintaining a 0% humidity environment until no further weight change was recorded. Subsequently, the sample was then subjected to a ramping profile from 0-90% RH at 10% RH increments, maintaining the sample at each step until equilibration had been attained (99.5% step completion). Upon reaching equilibration, the % RH within the apparatus was ramped to the next step and the equilibration procedure repeated. After completion of the sorption cycle, the sample was then dried using the same procedure. The weight change during the sorption/desorption cycles were then monitored, allowing for the hygroscopic nature of the sample to be determined.

A short description of data set [5]: Disproportionation study (slurry in distilled water ca. 48 hours, XRPD, pH of supernatant). It is filed as physicochemical. The settings on record: slurried in distilled water for ca. 48 hours. On the procedure: A 50 mg sample of crystalline genistein sodium salt dihydrate was slurried in 250 μL distilled water for ca. 48 hours and then checked by XRPD for disproportionation. The pH of the supernatant was also measured using a Corning 240 pH meter. […] The pH of the supernatant after slurrying was 7.1.
A sample of crystalline genistein potassium salt dihydrate was slurried in distilled water for ca. 48 hours and then checked by XRPD for disproportionation. The pH of the supernatant was also measured using a Corning 240 pH meter. […] The pH of the supernatant liquid was 7.3 indicating no disproportionation.

Data set [6] in a line: Stability study (80° C., 40° C./75 RH %, light; XRPD after 7 days). The settings on record: 40° C./75 RH % for 7 days.
Experimental: Sample stability was tested at 80° C. for 7 days and at 40° C./75 RH % for 7 days. Observations such as color change were noted after 7 days and XRPD of samples were taken after 7 days to investigate any solid form change.
For data set [7] the following is noted: male, Sprague-Dawley, rat, in vivo.
Experimental: (§1) Genistein and crystalline genistein sodium salt dihydrate were stored at room temperature under desiccant and protected from light. The dosing solutions were prepared fresh from powders on the day of dosing. The dosing solution for intravenous administration (IV) was prepared at 1 mg/mL (free acid) in 50:50 DMSO:saline. The dosing solutions for intraduodenal administration (ID) were prepared at 2 mg/mL (genistein free acid) in a 0.2% sodium carboxymethyl cellulose (Na CMC) solution in water.
(§2) The pharmacokinetics of genistein was evaluated in fasted male Sprague-Dawley rats. Each animal was fitted with a jugular vein cannula (JVC) for blood sampling. Animals intended for intravenous dosing were fitted with an additional JVC for dose administration. Animals intended for intraduodenal dosing were fitted with an intraduodenal cannula (IDC) for dose administration. Surgically modified animals were housed one per cage. All animals were supplied with a commercial rodent diet (LabDiet, Certified Rodent Diet #5002) ad libitum prior to study initiation. […]
(§3) Each blood sample was collected from the rats via a jugular vein cannula and placed into chilled polypropylene tubes containing sodium heparin as an anticoagulant. […] The total concentration of genistein in plasma samples were analyzed by LC-MS/MS after an overnight incubation with glucuronidase/arylsulfatase enzyme mixture. Pharmacokinetic parameters were calculated using the WinNonlin software.
(§4) An LC-MS/MS analytical method for the determination of genistein in rat plasma was developed. Prior to sample analysis, a standard curve was analyzed to determine the specificity, range, and linearity of the method. Total genistein in plasma samples was determined by pre-treating all samples with β-glucuronidase/arylsulfatase enzymes and incubating prior to analysis. […]
(§5) Individual plasma concentrations versus time data for genistein were subjected to non-compartmental analysis using the pharmacokinetic program WinNonlin v. […] Plasma concentrations below the limit of quantitation (10 ng/mL) were assigned a value of zero for PK analysis only.
Data set [8] is described as follows: Comparative pharmacokinetic study of genistein and crystalline genistein sodium salt dihydrate, intraduodenal and intravenous. The settings on record: rats.
Experimental: as §1, §2, §3, §4, §5

Each structure is given as a SMILES string.

In the case of `O=c1c(-c2ccc(O)cc2)coc2cc(O)cc(O)c12` [Genistein, 4′,5,7-trihydroxyisoflavone-5,7-dihydroxy-3-(4-hydroxyphenyl)-4H-1-benzopyran-4-one, reference compound], the Solubility is less than 10.3 mg/mL in data set [1] (1,4-dioxane); less than 10.1 mg/mL in data set [1] (Acetone/Water (50:50)); less than 10.1 mg/mL in data set [1] (Acetonitrile (MeCN)); less than 10.7 mg/mL in data set [1] (Cyclohexane); less than 10.3 mg/mL in data set [1] (Dichloromethane (DCM)); less than 10.6 mg/mL in data set [1] (Diisopropylether (DIPE)). The Solubility in data set [1] (Ethanol (EtOH)) is less than 10.8 mg/mL; in data set [1] (Methanol (MeOH)) it was less than 10.6 mg/mL; in data set [1] (Methyl acetate (MeOAc)), less than 10.3 mg/mL; in data set [1] (Methyl isobutyl ketone (MIBK)) it was less than 10.1 mg/mL; in data set [1] (Methylethyl ketone (MEK)) it was less than 10.8 mg/mL; in data set [1] (Toluene), less than 10.1 mg/mL. In addition, the Solubility in data set [1] (Toluene/Dioxane (50:50)) was less than 10.1 mg/mL. The “C[Eq]” value worked out at 13.79 mg×I^−1 in data set [2] (EtOH 100%), 12.87 mg×I^−1 in data set [2] (EtOH/dH2O 50/50 (vol/vol)) and 14.03 mg×I^−1 in data set [2] (EtOH/dH2O 75/25 (vol/vol)). Also, the “C[MSS]” value in data set [2] (EtOH 100%) worked out at 5.81 mg×I^−1; in data set [2] (EtOH/dH2O 50/50 (vol/vol)) it was 7.43 mg×I^−1; in data set [2] (EtOH/dH2O 75/25 (vol/vol)), 8.52 mg×I^−1. Also, the ISI in data set [2] (EtOH 100%) came to 2.11; in data set [2] (EtOH/dH2O 50/50 (vol/vol)) it was 1.55; in data set [2] (EtOH/dH2O 75/25 (vol/vol)), 1.49. Moreover, the KSR in data set [2] (EtOH 100%) came out at 0.42; in data set [2] (EtOH/dH2O 50/50 (vol/vol)), 0.58; in data set [2] (EtOH/dH2O 75/25 (vol/vol)), 0.61. For the same compound, the “KSR, assessment in words” value is “acceptable” in data set [2] (EtOH 100%), “acceptable” in data set [2] (EtOH/dH2O 50/50 (vol/vol)) and “good” in data set [2] (EtOH/dH2O 75/25 (vol/vol)). The MSS in data set [2] (EtOH 100%) was 23.81 mg×I^−1×min^−1; in data set [2] (EtOH/dH2O 50/50 (vol/vol)) it was 12.18 mg×I^−1×min^−1; in data set [2] (EtOH/dH2O 75/25 (vol/vol)), 19.67 mg×I^−1×min^−1. Besides, the “MSS, assessment in words” value in data set [2] (EtOH 100%), in data set [2] (EtOH/dH2O 50/50 (vol/vol)) and in data set [2] (EtOH/dH2O 75/25 (vol/vol)) was “good” each time. Also, in data set [2] (EtOH 100%), the “ΔC [C, − CMSS]” value amounted to 7.98 mg×I^−1. The entries for the “ΔC [CEq − CMSS]” value in data set [2] (EtOH/dH2O 50/50 (vol/vol)) and in data set [2] (EtOH/dH2O 75/25 (vol/vol)) were 5.44 mg×I^−1 and 5.51 mg×I^−1, respectively.

`O.O.O=c1c(-c2ccc(O)cc2)coc2cc(O)cc(O)c12.[K]` [genistein potassium salt dihydrate] had a solubility at 24 h in data set [3] (Water/slurry pH 4.5, ambient temperature) of 0.04 mg/mL. For the same compound, the solubility at 24 h in data set [3] (Water/slurry pH 6.7, ambient temperature) turned out to be 0.057 mg/mL. The compound also came in with a solubility at 24 h in data set [3] (Water/slurry pH 7.5, ambient temperature) of 0.069 mg/mL. Also, in data set [4], the “maximum of water adsorbed (GVS)” value is 16 wt % and the “moisture change (GVS)” value is on record as “ca. 3%”. In data set [5], the “disproportionation (XRPD)” value is on record as “No signs of disproportionation” and the “pH of the supernatant after slurrying” value is 7.3.

On to `O=c1c(-c2ccc(O)cc2)coc2cc(O)cc(O)c12.[K]` [genistein potassium salt], for which the “stability, solid form change by XRPD” value in data set [6] is on record as “crystallizes to form genistein potassium salt dihydrate”.

With `O.O.O=c1c(-c2ccc(O)cc2)coc2cc(O)cc(O)c12.[Na]` [genistein sodium salt dihydrate], the Solubility in data set [1] (1,4-dioxane) is less than 10.6 mg/mL; in data set [1] (Acetone/IPA (50:50)), 20.2 mg/mL; in data set [1] (Acetonitrile (MeCN)), less than 10.4 mg/mL; in data set [1] (Cyclohexane), less than 10.9 mg/mL; in data set [1] (Dichloromethane (DCM)), less than 10.8 mg/mL; in data set [1] (Diisopropylether (DIPE)), less than 9.7 mg/mL. Besides, the Solubility was less than 9.9 mg/mL in data set [1] (Heptane); less than 8.8 mg/mL in data set [1] (Methanol (MeOH)); less than 9.0 mg/mL in data set [1] (Methyl isobutyl ketone (MIBK)); less than 11 mg/mL in data set [1] (Octanol); less than 10.4 mg/mL in data set [1] (Tetrahydrofuran (THF)); less than 9.9 mg/mL in data set [1] (Toluene). The compound also gave a Solubility in data set [1] (Toluene/Dioxane (50:50)) of less than 9.7 mg/mL. In addition, the “maximum of water adsorbed (GVS)” value in data set [4] turned out to be 45 wt %. Further, the “moisture change (GVS)” value in data set [4] was “ca. 2%”. In addition, the “disproportionation (XRPD)” value in data set [5] was “No signs of disproportionation”. The “pH of the supernatant after slurrying” value in data set [5] is listed as 7.1. Besides, the “mean peak plasma concentration (Cmax) fold higher compared to genistein” value in data set [7] is 4.2 fold. The “C[Eq]” value in data set [2] (EtOH 100%) amounted to 11.20 mg×I^−1; in data set [2] (EtOH/dH2O 50/50 (vol/vol)), 17.40 mg×I^−1; in data set [2] (EtOH/dH2O 75/25 (vol/vol)), 15.86 mg×I^−1. The “C[MSS]” value in data set [2] (EtOH 100%) is reported as 10.85 mg×I^−1; in data set [2] (EtOH/dH2O 50/50 (vol/vol)), 14.67 mg×I^−1; in data set [2] (EtOH/dH2O 75/25 (vol/vol)), 11.20 mg×I^−1. In addition, the ISI in data set [2] (EtOH 100%) turned out to be 0.07; in data set [2] (EtOH/dH2O 50/50 (vol/vol)), 0.60; in data set [2] (EtOH/dH2O 75/25 (vol/vol)) it was 1.26. For the same compound, the KSR in data set [2] (EtOH 100%) was found to be 0.97; in data set [2] (EtOH/dH2O 50/50 (vol/vol)), 0.84; in data set [2] (EtOH/dH2O 75/25 (vol/vol)) it was 0.71. Moreover, the “KSR, assessment in words” value in data set [2] (EtOH 100%), in data set [2] (EtOH/dH2O 50/50 (vol/vol)) and in data set [2] (EtOH/dH2O 75/25 (vol/vol)) was “excellent” throughout. The MSS is given as 36.90 mg×I^−1×min^−1 in data set [2] (EtOH 100%), 20.66 mg×I^−1×min^−1 in data set [2] (EtOH/dH2O 50/50 (vol/vol)) and 37.33 mg×I^−1×min^−1 in data set [2] (EtOH/dH2O 75/25 (vol/vol)). The “MSS, assessment in words” value in data set [2] (EtOH 100%), in data set [2] (EtOH/dH2O 50/50 (vol/vol)) and in data set [2] (EtOH/dH2O 75/25 (vol/vol)) was “excellent” each time. Also, the “ΔC [C, − CMSS]” value in data set [2] (EtOH 100%) turned out to be 0.35 mg×I^−1. The “ΔC [CEq − CMSS]” value in data set [2] (EtOH/dH2O 50/50 (vol/vol)) was found to be 2.73 mg×I^−1; in data set [2] (EtOH/dH2O 75/25 (vol/vol)) it was 4.66 mg×I^−1. In data set [8] (intraduodenal dosing, mean plasma profile (FIG. 13)), the “time after ID dosing at which maximum plasma concentration (Cmax) was observed” value was not above 15 min. Besides, in data set [8] (intravenous 1 mg/kg), the “pharmacokinetic profile following IV dosing, compared with genistein” value is recorded as “not significantly different”.
